Results: patent US20050037090A1, “Combination therapy including a cyclooxygenase-2 inhibitor and an antineoplastic agent” (priority 1998, published 2005)
Read-outs that look alike come from different tables or passages of the source.

What was measured:
[1] = test system: HT-29 human colon cancer cells; assay: HT-29 Model, third assay (C): tumor volume, 5-FU days 14-17 with or without celecoxib or valdecoxib in the diet (Table 21); type: in vivo, mice; settings: for reduction in tumor volume: mice with HT-29 tumors, 5-FU i.p. 50 mg/kg days 14 through 17, celecoxib 1600 ppm, valdecoxib 160 ppm in the diet
Description: (§1) Mice were injected subcutaneously in the left paw (1×10^6 tumor cells suspended in 30% Matrigel) and tumor volume was evaluated using a phlethysmometer twice a week for 30-60 days. Implantation of human colon cancer cells (HT-29) into nude mice produces tumors that will reach 0.6-2 ml between 30-50 days. […] The data are expressed as the mean+/−SEM. Student's and Mann-Whitney tests were used to assess differences between means using the InStat software package.
(§2) The efficacy of both agents were determined by measuring tumor volume.

[2] = test system: HT-29 human colon cancer cells; settings: mice with HT-29 tumors; 5-FU i.p. 50 mg/kg on days 12, 13, 14, 15; celecoxib in the diet
Description: as §1, §2

[3] = test system: HT-29 human colon cancer cells
Description: as §1, §2

[4] = test system: Lewis Lung tumors; assay: Lewis Lung Model: tumor volume and lung metastasis in mice; type: in vivo
Description: Mice were injected subcutaneously in the left paw (1×10^6 tumor cells suspended in 30% Matrigel) and tumor volume was evaluated using a phlethysmometer twice a week for 30-60 days. […] The data are expressed as the mean+/−SEM. Student's and Mann-Whitney tests were used to assess differences between means using the InStat software package. […] Analysis of lung metastasis was done in all the animals by counting metastasis in a stereomicroscope and by histochemical analysis of consecutive lung sections.

[5] = test system: HT-29 human colon cancer cells; assay: HT-29 Model, fourth assay (D): celecoxib 10, 40 or 160 ppm in the diet from day 10 (Table 22); type: in vivo, mice; settings: celecoxib 10, 40 or 160 ppm in the diet beginning at day 10
Description: as §1

`O=c1[nH]cc(F)c(=O)[nH]1` [5-FU, 5-fluorouracil] was tested, and the “reduction in tumor volume” value [1] was 35% and the “reduction of tumor volume” value [2] was 61%.
`NS(=O)(=O)c1ccc(-n2nc(C(F)(F)F)cc2-c2ccc(Cl)cc2)cc1` [SC-58236] was tested, and the “formation of lung metastasis” value ([3]; mice with HT-29 tumors) was “completely inhibited” and the “reduction of tumor volume” value ([3]; mice with HT-29 tumors, COX-2 inhibitor in the diet) was 89%.
In the case of `Cc1ccc(-c2cc(C(F)(F)F)nn2-c2ccc(S(N)(=O)=O)cc2)cc1` [celecoxib, 4-[5-(4-methylphenyl)-3-(trifluoromethyl)-1H-pyrazol-1-yl]-benzenesulfonamide], the “size of the metastasic lesions in the lung, histopathological analysis” value ([4]; celecoxib in the diet) is reported as “dose-dependently reduced”, the “reduction of surface metastasis (lung)” value ([4]; celecoxib in the diet 480-3200 ppm) is reported as “more than 50%” and the “effect on lung metastasis” value ([4]; celecoxib in the diet, lower dose of 160 ppm) is reported as “did not affect”. The “effect on HT-29 tumors, dose dependence” value [5] was “approximate dose dependent effect”, the “Tumor Volume” value ([1]; celecoxib 160 ppm in diet, day 11) was 0.05 mL and the “Tumor Volume” value ([1]; celecoxib 160 ppm in diet, day 14) was 0.13 mL. The “Tumor Volume” value ([1]; celecoxib 160 ppm in diet, day 18) was 0.17 mL, the “Tumor Volume” value ([1]; celecoxib 160 ppm in diet, day 21) was 0.2 mL and the “Tumor Volume” value ([1]; celecoxib 160 ppm in diet, day 28) was 0.25 mL. The “Tumor Volume” value ([1]; celecoxib 160 ppm in diet, day 35) was 0.35 mL, the “Tumor Volume” value ([1]; celecoxib 160 ppm in diet, day 42) was 0.52 mL and the “reduction in tumor volume” value [1] was 52%. For the same molecule, the “reduction of tumor volume” value [2] was 68%.
In the case of `COc1ccc2c(c1)c(CC(=O)O)c(C)n2C(=O)c1ccc(Cl)cc1` [indomethacin], the “formation of lung metastasis” value ([3]; mice with HT-29 tumors) is reported as “ineffective” and the “inhibition of tumor formation” value ([3]; mouse, in vivo, 2 mg/kg/day) is reported as 77%.
In the case of `Cc1onc(-c2ccccc2)c1-c1ccc(S(N)(=O)=O)cc1` [valdecoxib, 4-(5-methyl-3-phenylisoxazol-4-yl)benzenesulfonamide], the “reduction in tumor volume” value [1] is reported as 69%, the “Tumor Volume” value ([1]; valdecoxib 160 ppm in diet, day 11) is reported as 0.06 mL and the “Tumor Volume” value ([1]; valdecoxib 160 ppm in diet, day 14) is reported as 0.13 mL. For the same molecule, the “Tumor Volume” value ([1]; valdecoxib 160 ppm in diet, day 18) was 0.17 mL, the “Tumor Volume” value ([1]; valdecoxib 160 ppm in diet, day 21) was 0.2 mL and the “Tumor Volume” value ([1]; valdecoxib 160 ppm in diet, day 28) was 0.25 mL. For the same molecule, the “Tumor Volume” value ([1]; valdecoxib 160 ppm in diet, day 35) was 0.32 mL and the “Tumor Volume” value ([1]; valdecoxib 160 ppm in diet, day 42) was 0.36 mL.
